Our source for the ring closure, isolated yield, ring closure, yield after HPLC and Ki values is patent US10273236B2, “Macrocyclic factor XIa inhibitors bearing heterocyclic groups” (Bristol-Myers Squibb Company, priority 2014, dated 2019).

For data set [1] the following is noted: rcm bond, 12-membered ring.
The conditions of data set [2]: from C=CC[C@H](NC(=O)OC(C)(C)C)c1cc(-c2c(NC(=O)C(C=C)C(C)C)cnn2C)ccn1; rcm bond; 12-membered ring; Grubbs II (40 mol%); DCE; 36.7 mM; 120.0 °C.
Data set [3] has as its target T1, purified human plasma kallikrein (Homo sapiens, UniProt P03952).
T1 construct: Plasma prekallikrein is a zymogen of a trypsin-like serine protease; purchased Enzyme Research Laboratories
Briefly: Plasma kallikrein inhibition assay, chromogenic substrate S-2302 (Ki). The data set is classed as biochemical. Put shortly:
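Purified human plasma kallikrein (200 pM final) with chromogenic substrate S-2302 at 0.00008-0.0004 M in 0.1 M sodium phosphate pH 7.5, 0.1-0.2 M NaCl, 0.5% PEG 8000. Velocities measured over 20-180 min with and without inhibitor; Ki derived assuming competitive inhibition, e.g. Ki=IC50/(1+S/Km).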

The target in data set [4] is T2, purified human Factor XIa (Homo sapiens, UniProt P03951).
T2 construct: purchased Haematologic Technologies
Briefly: Factor XIa inhibition assay, chromogenic substrate S-2366 (Ki). Type of data set: biochemical. The method, boiled down:
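Purified human FXIa (25-200 pM final) with S-2366 (0.0002-0.001 M) in 50 mM HEPES pH 7.4, 145 mM NaCl, 5 mM KCl, 0.1% PEG 8000. Velocities of absorbance change measured over 20-180 min with inhibitor present; Ki calculated for competitive inhibition from rates or IC50 via Ki=IC50/(1+S/Km).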

The next data set addresses factor XIa (Homo sapiens, UniProt P03951). The conditions noted are these: value taken from WO 2014/022767, Table 1, page 89; cited from earlier work.

Structures can show the parent of a compound that is named as a salt. Where two headings read alike, the source gives them in different places.

T2 sequence (P03951 388-625 limits assumed): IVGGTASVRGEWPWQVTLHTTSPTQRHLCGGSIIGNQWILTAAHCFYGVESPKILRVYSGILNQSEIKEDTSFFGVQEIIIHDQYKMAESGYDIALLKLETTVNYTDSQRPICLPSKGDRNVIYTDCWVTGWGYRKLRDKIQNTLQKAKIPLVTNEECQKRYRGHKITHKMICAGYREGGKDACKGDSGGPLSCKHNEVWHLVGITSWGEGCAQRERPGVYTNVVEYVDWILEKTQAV
T2 sequence (P03951 19-387 partner limits assumed): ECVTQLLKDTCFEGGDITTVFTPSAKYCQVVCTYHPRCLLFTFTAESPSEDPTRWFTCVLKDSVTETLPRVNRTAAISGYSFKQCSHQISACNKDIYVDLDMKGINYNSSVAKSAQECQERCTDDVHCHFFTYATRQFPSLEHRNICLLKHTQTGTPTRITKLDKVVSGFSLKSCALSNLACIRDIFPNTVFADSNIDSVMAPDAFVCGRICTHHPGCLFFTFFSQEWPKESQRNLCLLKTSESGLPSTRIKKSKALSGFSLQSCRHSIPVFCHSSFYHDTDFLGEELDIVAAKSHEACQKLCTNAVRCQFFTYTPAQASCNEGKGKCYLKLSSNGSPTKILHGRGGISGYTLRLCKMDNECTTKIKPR
T1 sequence (P03952 391-638 limits assumed): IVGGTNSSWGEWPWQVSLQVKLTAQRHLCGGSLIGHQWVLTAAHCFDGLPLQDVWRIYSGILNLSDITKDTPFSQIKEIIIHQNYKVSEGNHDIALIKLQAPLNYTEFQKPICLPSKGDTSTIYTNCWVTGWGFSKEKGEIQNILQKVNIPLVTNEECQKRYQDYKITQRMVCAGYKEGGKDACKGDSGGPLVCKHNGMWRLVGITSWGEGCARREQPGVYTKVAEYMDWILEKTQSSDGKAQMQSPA
T1 sequence (P03952 20-390 partner limits assumed): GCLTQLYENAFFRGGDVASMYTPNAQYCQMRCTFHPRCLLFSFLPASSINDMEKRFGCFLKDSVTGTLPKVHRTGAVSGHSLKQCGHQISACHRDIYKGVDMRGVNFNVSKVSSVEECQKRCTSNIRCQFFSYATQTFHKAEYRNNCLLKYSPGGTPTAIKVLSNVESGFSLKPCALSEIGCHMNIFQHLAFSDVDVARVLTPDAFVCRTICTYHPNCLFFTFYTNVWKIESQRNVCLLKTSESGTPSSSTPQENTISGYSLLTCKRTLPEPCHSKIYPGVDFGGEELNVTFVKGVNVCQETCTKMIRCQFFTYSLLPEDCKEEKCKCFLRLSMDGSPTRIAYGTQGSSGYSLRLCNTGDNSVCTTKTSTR
factor XIa, sequence (P03951 388-625 limits assumed): as the sequence (P03951 388-625 limits assumed) above
factor XIa, sequence (P03951 19-387 partner limits assumed): as the sequence (P03951 19-387 partner limits assumed) above

For `C[C@@H]1/C=C/C[C@H](NC(=O)OCc2ccccc2)c2cc(ccn2)-c2c(cnn2CCOC(C)(C)C)NC1=O`, the ring closure, isolated yield in data set [1] (from C=CC[C@H](NC(=O)OCc1ccccc1)c1cc(-c2c(NC(=O)[C@H](C)C=C)cnn2CCOC(C)(C)C)ccn1, Grubbs II (40 mol%), DCE, 35.6 mM, 120.0 °C, 0.5 h) turned out to be 38%.

As for `C[C@@H]1/C=C/C[C@H](NC(=O)OC(C)(C)C)c2cc(ccn2)-c2c(cnn2C)NC1=O`, in data set [1] (from C=CC[C@H](NC(=O)OC(C)(C)C)c1cc(-c2c(NC(=O)[C@H](C)C=C)cnn2C)ccn1, Grubbs II (40 mol%), DCE, 78.3 mM, 120.0 °C), the ring closure, isolated yield turned out to be 20%. For the molecule `CC(C)[C@H]1/C=C/C[C@H](NC(=O)OC(C)(C)C)c2cc(ccn2)-c2c(cnn2C)NC1=O`, in data set [2], the ring closure, yield after HPLC worked out at 16.8%.

Consider `C[C@@H]1/C=C/C[C@H](NC(=O)OC(C)(C)C)c2cccc(n2)-c2c(cnn2C)NC1=O`, for which, in data set [1] (from C=CC[C@H](NC(=O)OC(C)(C)C)c1cccc(-c2c(NC(=O)[C@H](C)C=C)cnn2C)n1, Grubbs II (40 mol%), EtOAc, 13.2 mM, 80.0 °C), the ring closure, isolated yield stood at 66%. For `C[C@@H]1CCC[C@H](N2CCC(c3cc(Cl)ccc3-n3ccnn3)=CC2=O)c2cc(ccn2)-c2c(cnn2C2CCC2)NC1=O` [Example 54, (9R,13S)-13-{4-[5-chloro-2-(1H-1,2,3-triazol-1-yl)phenyl]-6-oxo-1,2,3,6-tetrahydropyridin-1-yl}-3-cyclobutyl-9-methyl-3,4,7,15-tetraazatricyclo[12.3.1.0^2,6]octadeca-1(18),2(6),4,14,16-pentaen-8-one], the inhibition constant (Ki) amounted to 150 nM in data set [3] and 7.1 nM in data set [4]. As to `C[C@@H]1CCC[C@H](N2CCC(c3c(OC(F)F)ccc(Cl)c3F)=CC2=O)c2cc(ccn2)-c2c(cnn2C)NC1=O` [Example 23, (9R,13S)-13-{4-[3-chloro-6-(difluoromethoxy)-2-fluorophenyl]-6-oxo-1,2,3,6-tetrahydropyridin-1-yl}-3,9-dimethyl-3,4,7,15-tetraazatricyclo[12.3.1.0^2,6]octadeca-1(18),2(6),4,14,16-pentaen-8-one], the results for the Ki in data set [3] and in data set [4] were 7 nM and 0.92 nM, respectively. Taken in the same sequence, the figures for `C[C@H]1C(=O)Nc2cnn(C)c2-c2ccnc(c2)[C@@H](N2CCC(c3c(C(F)(F)F)ccc(Cl)c3F)=CC2=O)CCC1F` (stereo partly drawn) [Example 20, (9S,13S)-13-{4-[3-chloro-2-fluoro-6-(trifluoromethyl)phenyl]-6-oxo-1,2,3,6-tetrahydropyridin-1-yl}-10-fluoro-3,9-dimethyl-3,4,7,15-tetraazatricyclo[12.3.1.0^2,6]octadeca-1(18),2(6),4,14,16-pentaen-8-one] were 40 nM and 1.4 nM. The matching figures for `C[C@@H]1CCC[C@H](N2CCC(c3cc(Cl)ccc3-n3ccnn3)=CC2=O)c2cc(ccn2)-c2c(cnn2C)NC1=O` [Example 1, (9R,13S)-13-{4-[5-chloro-2-(1H-1,2,3-triazol-1-yl)phenyl]-6-oxo-1,2,3,6-tetrahydropyridin-1-yl}-3,9-dimethyl-3,4,7,15-tetraazatricyclo[12.3.1.0^2,6]octadeca-1(18),2(6),4,14,16-pentaen-8-one trifluoroacetate]: 24 nM and 1.8 nM. `CC(C)[C@@H]1/C=C/C[C@H](NC(=O)OC(C)(C)C)c2cc(ccn2)-c2c(cnn2C)NC1=O` registered a ring closure, yield after HPLC in data set [2] of 16.8%. In the case of `C[C@@H]1CCC[C@H](n2ccc(-c3c(Cl)ccc(Cl)c3F)cc2=O)c2cc(ccn2)-c2c(cnn2C)NC1=O` [Example 44, (9R,13S)-13-[4-(3,6-dichloro-2-fluorophenyl)-2-oxo-1,2-dihydropyridin-1-yl]-3,9-dimethyl-3,4,7,15-tetraazatricyclo[12.3.1.0^2,6]octadeca-1(18),2(6),4,14,16-pentaen-8-one], the results for the Ki in data set [3] and in data set [4] were 5.7 nM and 2.2 nM, respectively. As for `[2H]C([2H])([2H])n1ncc2c1-c1ccnc(c1)[C@@H](N1CCC(c3c(C(F)(F)F)ccc(Cl)c3F)=CC1=O)CCC[C@@H](C)C(=O)N2` [Example 18, (9R,13S)-13-{4-[3-chloro-2-fluoro-6-(trifluoromethyl)phenyl]-6-oxo-1,2,3,6-tetrahydropyridin-1-yl}-3-(^2H3)methyl-9-methyl-3,4,7,15-tetraazatricyclo[12.3.1.0^2,6]octadeca-1(18),2(6),4,14,16-pentaen-8-one], the Ki in data set [3] was 30 nM; in data set [4], 2.8 nM. Consider `C[C@@H]1CCC[C@H](N2CCC(c3cc(Cl)ccc3-n3cc(Cl)nn3)=CC2=O)c2cc(ccn2)-c2c(cnn2CCOC(C)(C)C)NC1=O` [Example 34, (9R,13S)-3-[2-(tert-butoxy)ethyl]-13-{4-[5-chloro-2-(4-chloro-1H-1,2,3-triazol-1-yl)phenyl]-6-oxo-1,2,3,6-tetrahydropyridin-1-yl}-9-methyl-3,4,7,15-tetraazatricyclo[12.3.1.0^2,6]octadeca-1(18),2(6),4,14,16-pentaen-8-one], for which the figures for the Ki in data set [3] and in data set [4] were 50 nM and 1.1 nM, respectively. As to `[2H]C([2H])([2H])n1ncc2c1-c1ccnc(c1)[C@@H](n1ncc(-c3cc(Cl)ccc3-n3cc(C(F)(F)F)nn3)cc1=O)CCC[C@@H](C)C(=O)N2` [Example 63, (9R,13S)-13-(4-{5-Chloro-2-[4-(trifluoromethyl)-1H-1,2,3-triazol-1-yl]phenyl}-6-oxo-1,6-dihydropyridazin-1-yl)-3-(^2H3)methyl-9-methyl-3,4,7,15-tetraazatricyclo[12.3.1.0^2,6]octadeca-1(18),2(6),4,14,16-pentaen-8-one trifluoroacetate], the Ki in data set [3] is 77 nM; in data set [4], 0.52 nM.

On to `CC(C)[C@@H]1CCC[C@H](N2CCC(c3cc(Cl)ccc3-n3cc(Cl)nn3)=CC2=O)c2cc(ccn2)-c2c(cnn2C)NC1=O` [Example 25, (9S,13S)-13-{4-[5-chloro-2-(4-chloro-1H-1,2,3-triazol-1-yl)phenyl]-6-oxo-1,2,3,6-tetrahydropyridin-1-yl}-3-methyl-9-(propan-2-yl)-3,4,7,15-tetraazatricyclo[12.3.1.0^2,6]octadeca-1(18),2(6),4,14,16-pentaen-8-one], for which the Ki in data set [3] amounted to 16 nM; in data set [4], 0.47 nM.

For the molecule `C[C@@H]1CCC[C@H](N2CCC(c3cc(Cl)ccc3-n3cc(Cl)nn3)=CC2=O)c2cc(ccn2)-c2c(cnn2C)NC1=O` [Example 3, (9R,13S)-13-{4-[5-chloro-2-(4-chloro-1H-1,2,3-triazol-1-yl)phenyl]-6-oxo-1,2,3,6-tetrahydropyridin-1-yl}-3,9-dimethyl-3,4,7,15-tetraazatricyclo [12.3.1.0^2,6]octadeca-1(18),2(6),4,14,16-pentaen-8-one], the inhibitory constant (Ki) was found to be 6 nM in data set [3] and 0.12 nM in data set [4]. As for `C[C@@H]1CCC[C@H](N2CCC(c3c(F)ccc(Cl)c3F)=CC2=O)c2cc(ccn2)-c2cn[nH]c2NC1=O` [Example 221], the Ki on factor XIa was 1320 nM.

For the molecule `C[C@@H]1CCC[C@H](N2CCC(c3c(C(F)(F)F)ccc(Cl)c3F)=CC2=O)c2cc(ccn2)-c2nn(-c3cncnc3)cc2NC1=O` [Example 47, (9R,13S)-13-{4-[3-chloro-2-fluoro-6-(trifluoromethyl)phenyl]-6-oxo-1,2,3,6-tetrahydropyridin-1-yl}-9-methyl-4-(pyrimidin-5-yl)-3,4,7,15-tetraazatricyclo[12.3.1.0^2,6]octadeca-1(18),2,5,14,16-pentaen-8-one], the Ki in data set [3] was determined as 13 nM; in data set [4], 5.4 nM. The matching figures for `[2H]C([2H])([2H])n1ncc2c1-c1cccc(c1)[C@@H](N1CCC(c3cc(Cl)ccc3-n3cc(Cl)nn3)=CC1=O)CCC[C@@H](C)C(=O)N2` [Example 51, (9R,13S)-13-{4-[5-chloro-2-(4-chloro-1H-1,2,3-triazol-1-yl)phenyl]-6-oxo-1,2,3,6-tetrahydropyridin-1-yl}-3-(^2H3)methyl-9-methyl-3,4,7-triazatricyclo[12.3.1.0^2,6]octadeca-1(18),2(6),4,14,16-pentaen-8-one]: 5 nM and 0.18 nM. In data set [1] (from C=CC[C@H](NC(=O)OC(C)(C)C)c1cc(-c2c(NC(=O)[C@H](C)C=C)cnn2C(F)F)ccn1, Grubbs II (25 mol%), EtOAc, 5.0 mM), `C[C@@H]1/C=C/C[C@H](NC(=O)OC(C)(C)C)c2cc(ccn2)-c2c(cnn2C(F)F)NC1=O` yielded a ring closure, isolated yield of 76%.

As for `C[C@@H]1CCC[C@H](N2CCC(c3c(F)ccc(Cl)c3F)=CC2=O)c2cc(ccn2)-c2nn(-c3ccnc(O)c3)cc2NC1=O` [Example 9, (9R,13S)-13-[4-(3-chloro-2,6-difluorophenyl)-6-oxo-1,2,3,6-tetrahydropyridin-1-yl]-4-(2-hydroxypyridin-4-yl)-9-methyl-3,4,7,15-tetraazatricyclo[12.3.1.0^2,6]octadeca-1(18),2,5,14,16-pentaen-8-one], the Ki in data set [3] and in data set [4] was 14 nM throughout.

Broadly, the Ki is a measure of affinity in units of concentration, obtained from inhibition or displacement.
